Data reported in patent publication US20260027087A1, “DOSING REGIMENS COMPRISING A KAT6 INHIBITOR FOR THE TREATMENT OF CANCER” (PFIZER INC., priority 2022, published 2026).
Values joined by “and” are separate entries in the source; they are usually repeats but may differ in a detail not shown here. Equal values may be shown once. Read-outs that look alike come from different tables or passages of the source.

Assays:
[1] = tested on: locally advanced or metastatic selected solid tumors (ER+HER2− breast cancer, CRPC, or NSCLC); experiment: Phase 1 clinical trial: clinical efficacy (tumor response); assay type: in vivo, human; conditions: for confirmed and durable partial responses (PR): ER+/HER2− breast cancer; for confirmed and durable partial responses, response-evaluable pts with ER+/HER2− mBC: progressed on prior ET+CDK4/6 inhibitor
Source text: (§1) The patients in this trial are intolerant of or resistant to standard therapy.
Study Design: The overall study design is depicted in FIG. 1. The study contains two parts, a dose escalation (Part 1) followed by a dose expansion (Part 2). Not shown in FIG. 1 are Part 1D and Part 2D, which are additional arms in Part 1 and Part 2 in the study design and are described below.
Part 1A (Monotherapy Dose Escalation) contains dose escalation as monotherapy in patients with locally advanced or metastatic ER+HER2− breast cancer, CRPC, or NSCLC that is resistant or intolerant to standard therapy or for whom no standard therapy is available, to determine the maximum tolerated dose (MTD) and select the RDE. […] A 2-parameter Bayesian Logistic Regression Model (BLRM) was used for dose finding.
Part 1B (Combination Dose Escalation), COMPOUND A in combination with fulvestrant was evaluated for dose finding in patients with locally advanced or metastatic ER+HER2− breast cancer (2L+) who progressed after at least one line of treatment with an endocrine therapy and a CDK4/6 inhibitor to determine the MTD and RDE for this combination. Combination RDE may be different from monotherapy RDE due to potential toxicity overlap. A 5-parameter BLRM was used for dose finding.

[2] = Phase 1 clinical trial: COMPOUND A plasma pharmacokinetics; assay type: in vivo, human; conditions: for CL/F (apparent clearance) / Cmax / AUC: geometric mean (CV %); for Tmax / Cmax / AUC: human, plasma; for AUC: read-out: AUC24
Protocol: as §1
COMPOUND A was orally administered at 2 mg, 5 mg, 8 mg, and 15 mg QD alone or 5 mg QD in combination with 500 mg of fulvestrant.
Preliminary pharmacokinetic parameters are available from 23 participants following the 1st oral dose (Day 1 of Cycle 1) and at steady state (Day 15 of Cycle 1) and presented in Table 1.
1S COMPOUND A was orally administered at 1 mg, 2 mg, 5 mg, 8 mg, and 15 mg QD alone or 5 mg QD in combination with 500 mg of fulvestrant.
A total of 29 participants had evaluable PK concentration data in Part 1A and Part 1B, at the time of the data cut-off date of 30 Sep. 2022. Of these participants, two (2) in the 1 mg QD dose group were excluded from Cycle 1 Day 15 summaries due to either dose interruption impacting PK analysis or sample collection after the data cut-off date.
Participants were to swallow COMPOUND A whole tablets and were not to manipulate or chew the study intervention prior to swallowing. COMPOUND A was administered QD by mouth for all cohorts on a continuous basis. The once daily dose was administered in 24±3 hour intervals (i.e., no less than 21 hours and no more than 27 hours apart). All cycles were 28 days in length.

[3] = Parts 1A + 1B, of the 10 with SD

## COc1ccccc1S(=O)(=O)Nc1noc2cc(Cn3cccn3)cc(OC)c12 [COMPOUND A, 2-Methoxy-N-{4-methoxy-6-[(1H-pyrazol-1-yl)methyl]-1,2-benzoxazol-3-yl}benzene-1-sulfonamide]
[1]; 1 patient in Part 1A
  Duration of response (DOR): 19.4 months
[1]; 2 patients in Part 1B (one value per patient)
  Duration of response (DOR): 8.1 months and 10 months
[1]; 31 participants treated, cut-off 23 Mar. 2022
  clinical efficacy: early signs of clinical efficacy
[1]; Part 1A (8 mg monotherapy)
  confirmed and durable partial responses (PR): 1 patients
[1]; Part 1A (monotherapy)
  confirmed and durable partial responses, response-evaluable pts with ER+/HER2− mBC: ⅛
[1]; Part 1B (5 mg QD + fulvestrant)
  confirmed and durable partial responses, response-evaluable pts with ER+/HER2− mBC: 2/4
[1]; Part 1B (5 mg QD/fulvestrant 500 mg)
  confirmed and durable partial responses (PR): 2 patients
[1]; [3]
  Stable disease (SD), patients with CRPC: 4
  Stable disease (SD), patients with ER+/HER2− breast cancer: 5
  Stable disease (SD), patients with NSCLC: 1
[1]; among response-evaluable patients (n=22)
  confirmed and durable partial responses (PR): 3 patients
[1]; as of 30 Sep. 2022
  clinical responses in heavily treated patients with ER+HER2− breast cancer: confirmed and durable clinical responses were observed
  patients with SD lasting ≥6 months: Three
[1]; during dose escalation, as of 23 Mar. 2022
  efficacy in ER+HER2− breast cancer patients: signs of efficacy
[1]; patient with CRPC, 5 mg QD
  duration of SD: 9.1 months
[1]; patient with CRPC, 15 mg QD
  duration of SD: 11.3 months
[1]; patient with ER+/HER2− breast cancer, 8 mg QD
  duration of SD: 7.5 months
[2]; 1 mg to 15 mg QD, cut-off 30 Sep. 2022
  time to steady state: achieved by Cycle 1 Day 15
[2]; 5 mg QD oral in combination with fulvestrant, N=4, median (minimum, maximum)
  Rac (ratio of AUC24 at Cycle 1 Day 15 to AUC24 at Cycle 1 Day 1): 4.2 (3.2, 5.1)
[2]; 5 mg QD oral monotherapy, N=4, median (minimum, maximum)
  Rac (ratio of AUC24 at Cycle 1 Day 15 to AUC24 at Cycle 1 Day 1): 4.1 (2.9, 5.5)
[2]; 8 mg QD oral monotherapy, N=7, median (minimum, maximum)
  Rac (ratio of AUC24 at Cycle 1 Day 15 to AUC24 at Cycle 1 Day 1): 3.8 (3.1, 5.1)
[2]; 15 mg QD oral monotherapy, N=6, median (minimum, maximum)
  Rac (ratio of AUC24 at Cycle 1 Day 15 to AUC24 at Cycle 1 Day 1): 3.8 (2.3, 4.7)
[2]; C1D15, 5 mg QD oral in combination with fulvestrant, N=4
  CL/F (apparent clearance): 0.10 (26.9) L/hr
[2]; C1D15, 5 mg QD oral monotherapy, N=4
  CL/F (apparent clearance): 0.14 (23.9) L/hr
[2]; C1D15, 8 mg QD oral monotherapy, N=7
  CL/F (apparent clearance): 0.10 (9.7) L/hr
[2]; C1D15, 15 mg QD oral monotherapy, N=6
  CL/F (apparent clearance): 0.12 (43.2) L/hr
[2]; CL/F similar alone and in combination
  drug-drug interaction between COMPOUND A and fulvestrant: no apparent drug-drug interaction
[2]; CL/F similar at each dose level, 2 mg to 15 mg, cut-off 23 Mar. 2022
  linearity of pharmacokinetics: linear
[2]; between 1 mg and 15 mg QD dose regimens, cut-off 30 Sep. 2022
  linearity of PK: linear
[2]; dose range 2 mg to 15 mg, alone or in combination with fulvestrant
  COMPOUND A exposure (AUC24) versus dose: increased proportionally when dose was increased
[2]; oral, following repeated daily dosing to Day 15, read-out: median Tmax
  Tmax: 3 h
[2]; po, 5 mg, C1D1 (after 1st dose), 5 mg QD oral monotherapy, N=4
  Cmax: 508 ng/mL
[2]; po, 5 mg, C1D1, 5 mg QD oral monotherapy, N=4
  AUC: 8900 ng·h/mL
[2]; po, 5 mg, C1D1, 5 mg QD oral monotherapy, N=4, median (minimum, maximum), read-out: Tmax
  Tmax: 3.5 h
[2]; po, 5 mg, C1D15 (steady state), 5 mg QD oral monotherapy, N=4
  Cmax: 1710 ng/mL
[2]; po, 5 mg, C1D15, 5 mg QD oral monotherapy, N=4
  AUC: 35900 ng·h/mL
[2]; po, 5 mg, C1D15, 5 mg QD oral monotherapy, N=4, median (minimum, maximum), read-out: Tmax
  Tmax: 3 h
[2]; po, 8 mg, C1D1 (after 1st dose), 8 mg QD oral monotherapy, N=7
  Cmax: 1050 ng/mL
[2]; po, 8 mg, C1D1, 8 mg QD oral monotherapy, N=7
  AUC: 20500 ng·h/mL
[2]; po, 8 mg, C1D1, 8 mg QD oral monotherapy, N=7, median (minimum, maximum), read-out: Tmax
  Tmax: 3 h
[2]; po, 8 mg, C1D15 (steady state), 8 mg QD oral monotherapy, N=7
  Cmax: 3620 ng/mL
[2]; po, 8 mg, C1D15, 8 mg QD oral monotherapy, N=7
  AUC: 76500 ng·h/mL
[2]; po, 8 mg, C1D15, 8 mg QD oral monotherapy, N=7, median (minimum, maximum), read-out: Tmax
  Tmax: 3 h
[2]; po, 15 mg, C1D1 (after 1st dose), 15 mg QD oral monotherapy, N=6
  Cmax: 1940 ng/mL
[2]; po, 15 mg, C1D1, 15 mg QD oral monotherapy, N=6
  AUC: 35700 ng·h/mL
[2]; po, 15 mg, C1D1, 15 mg QD oral monotherapy, N=6, median (minimum, maximum), read-out: Tmax
  Tmax: 3.5 h
[2]; po, 15 mg, C1D15 (steady state), 15 mg QD oral monotherapy, N=6
  Cmax: 6030 ng/mL
[2]; po, 15 mg, C1D15, 15 mg QD oral monotherapy, N=6
  AUC: 127000 ng·h/mL
[2]; po, 15 mg, C1D15, 15 mg QD oral monotherapy, N=6, median (minimum, maximum), read-out: Tmax
  Tmax: 3 h
[2]; po, C1D1 (after 1st dose), 5 mg QD oral in combination with fulvestrant, N=4
  Cmax: 641 ng/mL
[2]; po, C1D1, 5 mg QD oral in combination with fulvestrant, N=4
  AUC: 12100 ng·h/mL
[2]; po, C1D1, 5 mg QD oral in combination with fulvestrant, N=4, median (minimum, maximum), read-out: Tmax
  Tmax: 6 h
[2]; po, C1D15 (steady state), 5 mg QD oral in combination with fulvestrant, N=4
  Cmax: 2340 ng/mL
[2]; po, C1D15, 5 mg QD oral in combination with fulvestrant, N=4
  AUC: 50100 ng·h/mL
[2]; po, C1D15, 5 mg QD oral in combination with fulvestrant, N=4, median (minimum, maximum), read-out: Tmax
  Tmax: 6 h
[2]; when dosed at ≥1 mg
  steady-state concentrations relative to Cerf targets (defined from preclinical models): near or above Cerf targets
